# Experimental data taken from PubChem BioAssay AID248 (DTP/NCI, 2004).
# Where “and” joins values, the source holds several entries; their conditions need not be identical. Equal entries are not always repeated. Inconclusive results and toxic doses are left out.
# Test system: L1210 leukemia ip in BDF1 mice, survival T/C
# Assay: NCI In Vivo Anticancer Drug Screen. Data for tumor model L1210 Leukemia (intraperitoneal) in B6D2F1 (BDF1) mice
# Details: higher = longer survival
# How it was run: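 Each compound was tested against a transplantable tumor grown in mice. The endpoint was survival, with treated animals benchmarked against vehicle controls as a simple ratio.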
# [1] = endpoint: mean survival time, dose: 100.0 mg/kg/injection, schedule: Q01DX001 (ip), vehicle: carboxymethylcellulose (CMC)
# [2] = endpoint: mean survival time, dose: 100.0 mg/kg/injection, schedule: Q01DX009 (ip), vehicle: saline
# [3] = endpoint: mean survival time, dose: 200.0 mg/kg/injection, schedule: Q01DX001 (ip), vehicle: carboxymethylcellulose (CMC)
# [4] = endpoint: mean survival time, dose: 200.0 mg/kg/injection, schedule: Q01DX009 (ip), vehicle: saline
# [5] = endpoint: mean survival time, dose: 100.0 mg/kg/injection, schedule: Q04DX003 (ip), vehicle: saline with Tween-80
# [6] = endpoint: mean survival time, dose: 200.0 mg/kg/injection, schedule: Q04DX003 (ip), vehicle: saline with Tween-80
# [7] = endpoint: mean survival time, dose: 400.0 mg/kg/injection, schedule: Q04DX003 (ip), vehicle: saline with Tween-80
smiles,measurement,setting,value
CC(C)(C)NC(=O)C1C(c2ccccc2)C1c1ccccc1 (centres undefined),T/C,"endpoint: mean survival time, dose: 100.0 mg/kg/injection, schedule: Q04DX002 (ip), vehicle: Klucel (hydroxypropylcellulose) (HPC)",90 % of control
same,T/C,"endpoint: mean survival time, dose: 200.0 mg/kg/injection, schedule: Q04DX002 (ip), vehicle: Klucel (hydroxypropylcellulose) (HPC)",113 % of control
same,T/C,"endpoint: mean survival time, dose: 400.0 mg/kg/injection, schedule: Q04DX002 (ip), vehicle: Klucel (hydroxypropylcellulose) (HPC)",100 % of control
O=S1(=O)C=CCC1,T/C,"endpoint: mean survival time, dose: 50.0 mg/kg/injection, schedule: Q01DX001 (ip), vehicle: carboxymethylcellulose (CMC)",100 % of control
same,T/C,[1],94 % of control
same,T/C,[2],96 % of control
same,T/C,"endpoint: mean survival time, dose: 100.0 mg/kg/injection, schedule: Q04DX003 (ip), vehicle: saline",100 % of control
same,T/C,[3],103 % of control
same,T/C,[4],102 % of control
same,T/C,"endpoint: mean survival time, dose: 200.0 mg/kg/injection, schedule: Q04DX003 (ip), vehicle: saline",94 % of control
same,T/C,"endpoint: mean survival time, dose: 400.0 mg/kg/injection, schedule: Q04DX003 (ip), vehicle: saline",100 % of control
C/C(=N\N=C(N)N)c1ccc(NC(=O)Nc2ccc(/C(C)=N/N=C(N)N)cc2)cc1,T/C,"endpoint: mean survival time, dose: 10.0 mg/kg/injection, schedule: Q01DX009 (ip), vehicle: saline",109 % of control and 124 % of control
same,T/C,"endpoint: mean survival time, dose: 18.0 mg/kg/injection, schedule: Q01DX009 (ip), vehicle: water",187 % of control
same,T/C,"endpoint: mean survival time, dose: 20.0 mg/kg/injection, schedule: Q01DX005 (ip), vehicle: saline",157 % of control
same,T/C,"endpoint: mean survival time, dose: 30.0 mg/kg/injection, schedule: Q01DX009 (ip), vehicle: carboxymethylcellulose (CMC)",152 % of control
same,T/C,"endpoint: mean survival time, dose: 30.0 mg/kg/injection, schedule: Q01DX009 (ip), vehicle: water",188 % of control
same,T/C,"endpoint: mean survival time, dose: 40.0 mg/kg/injection, schedule: Q01DX005 (ip), vehicle: saline",150 % of control
same,T/C,"endpoint: mean survival time, dose: 40.0 mg/kg/injection, schedule: Q01DX009 (ip), vehicle: water",174 % of control
same,T/C,"endpoint: mean survival time, dose: 50.0 mg/kg/injection, schedule: Q01DX009 (ip), vehicle: carboxymethylcellulose (CMC)",189 % of control
same,T/C,"endpoint: mean survival time, dose: 50.0 mg/kg/injection, schedule: Q01DX009 (ip), vehicle: water",259 % of control
same,T/C,"endpoint: mean survival time, dose: 65.0 mg/kg/injection, schedule: Q01DX009 (ip), vehicle: water",167 % of control
same,T/C,"endpoint: mean survival time, dose: 80.0 mg/kg/injection, schedule: Q01DX005 (ip), vehicle: saline",177 % of control
same,T/C,"endpoint: mean survival time, dose: 83.3 mg/kg/injection, schedule: Q01DX009 (ip), vehicle: carboxymethylcellulose (CMC)",257 % of control
same,T/C,"endpoint: mean survival time, dose: 83.3 mg/kg/injection, schedule: Q01DX009 (ip), vehicle: water",243 % of control
same,T/C,"endpoint: mean survival time, dose: 108.0 mg/kg/injection, schedule: Q01DX015 (ip), vehicle: saline",172 % of control
same,T/C,"endpoint: mean survival time, dose: 160.0 mg/kg/injection, schedule: Q01DX005 (ip), vehicle: saline",226 % of control
same,T/C,"endpoint: mean survival time, dose: 180.0 mg/kg/injection, schedule: Q01DX015 (ip), vehicle: saline",207 % of control
same,T/C,"endpoint: mean survival time, dose: 400.0 mg/kg/injection, schedule: Q01DX001 (ip), vehicle: other",157 % of control
same,T/C,"endpoint: mean survival time, dose: 600.0 mg/kg/injection, schedule: Q01DX001 (ip), vehicle: other",188 % of control
same,T/C,"endpoint: median survival time, dose: 50.0 mg/kg/injection, schedule: Q01DX009 (ip), vehicle: saline",162 % of control
same,T/C,"endpoint: median survival time, dose: 60.0 mg/kg/injection, schedule: Q03HX024 (ip), vehicle: water",228 % of control
same,T/C,"endpoint: median survival time, dose: 75.0 mg/kg/injection, schedule: Q03HX024 (ip), vehicle: water",166 % of control
same,T/C,"endpoint: median survival time, dose: 90.0 mg/kg/injection, schedule: Q03HX024 (ip), vehicle: water",284 % of control
same,T/C,"endpoint: median survival time, dose: 100.0 mg/kg/injection, schedule: Q01DX009 (ip), vehicle: saline",215 % of control and 262 % of control
same,T/C,"endpoint: median survival time, dose: 105.0 mg/kg/injection, schedule: Q03HX024 (ip), vehicle: water",168 % of control
same,T/C,"endpoint: median survival time, dose: 120.0 mg/kg/injection, schedule: Q03HX024 (ip), vehicle: water",303 % of control
same,T/C,"endpoint: median survival time, dose: 200.0 mg/kg/injection, schedule: Q01DX009 (ip), vehicle: saline",260 % of control and 312 % of control
O=C(O)C(O)C(O)C(O)C(O)C(=O)O (centres undefined),T/C,"endpoint: mean survival time, dose: 50.0 mg/kg/injection, schedule: Q01DX009 (ip), vehicle: saline",92 % of control
same,T/C,[2],94 % of control
same,T/C,"endpoint: mean survival time, dose: 100.0 mg/kg/injection, schedule: Q04DX003 (ip), vehicle: Klucel (hydroxypropylcellulose) (HPC)",95 % of control
same,T/C,[4],89 % of control
same,T/C,"endpoint: mean survival time, dose: 200.0 mg/kg/injection, schedule: Q04DX003 (ip), vehicle: Klucel (hydroxypropylcellulose) (HPC)",91 % of control
same,T/C,"endpoint: mean survival time, dose: 400.0 mg/kg/injection, schedule: Q01DX009 (ip), vehicle: saline",92 % of control
same,T/C,"endpoint: mean survival time, dose: 400.0 mg/kg/injection, schedule: Q04DX003 (ip), vehicle: Klucel (hydroxypropylcellulose) (HPC)",91 % of control
same,T/C,"endpoint: mean survival time, dose: 600.0 mg/kg/injection, schedule: Q01DX001 (ip), vehicle: saline",90 % of control
same,T/C,"endpoint: mean survival time, dose: 600.0 mg/kg/injection, schedule: Q01DX009 (ip), vehicle: saline",100 % of control
same,T/C,"endpoint: mean survival time, dose: 800.0 mg/kg/injection, schedule: Q01DX001 (ip), vehicle: saline",93 % of control and 90 % of control
same,T/C,"endpoint: mean survival time, dose: 800.0 mg/kg/injection, schedule: Q01DX009 (ip), vehicle: saline",97 % of control
same,T/C,"endpoint: mean survival time, dose: 1000.0 mg/kg/injection, schedule: Q01DX001 (ip), vehicle: saline",95 % of control and 88 % of control
same,T/C,"endpoint: mean survival time, dose: 1000.0 mg/kg/injection, schedule: Q01DX009 (ip), vehicle: saline",100 % of control
Cc1ccc(NC(=O)Oc2ccc(F)cc2Cl)cc1NC(=O)Oc1ccc(F)cc1Cl,T/C,"endpoint: mean survival time, dose: 100.0 mg/kg/injection, schedule: Q01DX009 (ip), vehicle: saline with Tween-80",91 % of control
same,T/C,[5],95 % of control
same,T/C,"endpoint: mean survival time, dose: 200.0 mg/kg/injection, schedule: Q01DX009 (ip), vehicle: saline with Tween-80",100 % of control
same,T/C,[6],88 % of control
same,T/C,"endpoint: mean survival time, dose: 400.0 mg/kg/injection, schedule: Q01DX009 (ip), vehicle: saline with Tween-80",86 % of control
same,T/C,[7],95 % of control
CCCCCCCCC(=O)N1C(C)CCCC1C (centres undefined),T/C,"endpoint: mean survival time, dose: 100.0 mg/kg/injection, schedule: Q04DX002 (ip), vehicle: saline",111 % of control
same,T/C,"endpoint: mean survival time, dose: 200.0 mg/kg/injection, schedule: Q04DX002 (ip), vehicle: saline",114 % of control
same,T/C,"endpoint: mean survival time, dose: 400.0 mg/kg/injection, schedule: Q04DX002 (ip), vehicle: saline",100 % of control
O=C(CF)N(O)c1ccc(/C=C/c2ccccc2)cc1,T/C,[1],101 % of control
same,T/C,[3],113 % of control
CCCCOC(=Nc1ccccc1)N(c1ccccc1)c1ccccc1,T/C,"endpoint: mean survival time, dose: 222.0 mg/kg/injection, schedule: Q01DX Z (ip), vehicle: methylcellulose (MC)",88 % of control
same,T/C,"endpoint: mean survival time, dose: 333.0 mg/kg/injection, schedule: Q01DX Z (ip), vehicle: methylcellulose (MC)",94 % of control
same,T/C,"endpoint: mean survival time, dose: 500.0 mg/kg/injection, schedule: Q01DX Z (ip), vehicle: methylcellulose (MC)",98 % of control
O=NN(CCCl)C(=O)Nc1cccc(O)c1,T/C,"endpoint: mean survival time, dose: 4.5 mg/kg/injection, schedule: Q01DX009 (ip), vehicle: other",123 % of control
same,T/C,"endpoint: mean survival time, dose: 7.0 mg/kg/injection, schedule: Q01DX009 (ip), vehicle: other",176 % of control
same,T/C,"endpoint: mean survival time, dose: 11.0 mg/kg/injection, schedule: Q01DX009 (ip), vehicle: other",155 % of control
same,T/C,"endpoint: mean survival time, dose: 17.0 mg/kg/injection, schedule: Q01DX009 (ip), vehicle: carboxymethylcellulose (CMC)",170 % of control
same,T/C,"endpoint: mean survival time, dose: 17.0 mg/kg/injection, schedule: Q01DX009 (ip), vehicle: other",154 % of control
same,T/C,"endpoint: mean survival time, dose: 26.0 mg/kg/injection, schedule: Q01DX009 (ip), vehicle: carboxymethylcellulose (CMC)",210 % of control
same,T/C,"endpoint: mean survival time, dose: 26.0 mg/kg/injection, schedule: Q01DX009 (ip), vehicle: other",184 % of control
same,T/C,"endpoint: mean survival time, dose: 30.0 mg/kg/injection, schedule: Q01DX001 (ip), vehicle: carboxymethylcellulose (CMC)",154 % of control
same,T/C,"endpoint: mean survival time, dose: 40.0 mg/kg/injection, schedule: Q01DX009 (ip), vehicle: carboxymethylcellulose (CMC)",156 % of control
same,T/C,"endpoint: mean survival time, dose: 40.0 mg/kg/injection, schedule: Q01DX009 (ip), vehicle: other",170 % of control
same,T/C,"endpoint: mean survival time, dose: 60.0 mg/kg/injection, schedule: Q01DX001 (ip), vehicle: carboxymethylcellulose (CMC)",154 % of control and 168 % of control
same,T/C,"endpoint: mean survival time, dose: 60.0 mg/kg/injection, schedule: Q01DX009 (ip), vehicle: other",121 % of control
same,T/C,"endpoint: mean survival time, dose: 75.0 mg/kg/injection, schedule: Q01DX001 (ip), vehicle: carboxymethylcellulose (CMC)",118 % of control
CCCCC1(C(C)C)C(=O)NC(=O)NC1=O,T/C,"endpoint: mean survival time, dose: 75.0 mg/kg/injection, schedule: Q01DX001 (ip), vehicle: saline",102 % of control
same,T/C,"endpoint: mean survival time, dose: 150.0 mg/kg/injection, schedule: Q01DX001 (ip), vehicle: saline",96 % of control
NC(=O)c1cc([N+](=O)[O-])ccc1Cl,T/C,[5],97 % of control
same,T/C,[6],97 % of control
same,T/C,[7],101 % of control
CCc1nc2[nH]c(N)nc(=S)c2cc1C,T/C,"endpoint: mean survival time, dose: 100.0 mg/kg/injection, schedule: Q01DX Z (ip), vehicle: methylcellulose (MC)",95 % of control
same,T/C,"endpoint: mean survival time, dose: 200.0 mg/kg/injection, schedule: Q01DX Z (ip), vehicle: methylcellulose (MC)",95 % of control
